From patent publication US6294526A, “Use of flavone derivatives for induction of β-lactam-sensitivity of MRSA” (priority 1998, dated 2001)
Values after ≈ are worked out from the molar mass of the structure shown. Like-named read-outs stand apart in the source and are kept apart here.

Experiments:
MSSA = test: antibacterial activity (MIC) by agar plate dilution method, MSSA strains; type: cell-based, Methicillin-sensitive Staphylooccus aureus; conditions: Staphylococcus aureus, 20 h; for MIC: range over strains
Description: (§1) The screening of the present invention may be carried out according to the agar plate dilution method designated by the Japan Society of Chemotherapy (Chemotherapy 29(1), 76-79 (1981)). Mueller-Hinton agar base semi-synthetic medium may be used for a plate culture medium for a sensitivity test together with an inoculating bacteria solution which may be prepared by culturing bacteria to be tested at 37° C. for 20 hours diluted with 8.5% by isotonic sodium chloride solution to 10^6 CFU/ml. Diluted β-lactam solutions are prepared by two times serial dilution. 1 ml of the diluted β-lactam solution and 1 ml of a predetermined concentration of a sample to be tested are added to 8 ml of the plate culture medium for a sensitivity test. To the resultant plate culture medium for sensitivity test, the bacteria are inoculated using a microplanter (SAKUMASEISAKUSYO Co.), cultured for 20 hours at 37° C. followed by assessing for a minimum inhibition concentration (MIC).
(§2) (A) Antibacterial activities of ether extract from Scutellaria barbata, SB-1 (isolated from Scutellaria barbata), apigenin (authentic sample) and luteolin (authentic sample) were shown in Table 1.
(§3) Flavones were dissolved in methanol and the others were dissolved in 0.1 N NaOH. A method for determination of antibacterial activity is, as described above, an agar plate dilution method designated by the Japan Society of Chemotherapy (Chemotherapy 29(1), 76-79 (1981)) to determine MIC value. MIC80 is a concentration at which a strain is prohibited to proliferate by 80% and MIC50 is a concentration at which a strain is prohibited to proliferate by 50%.

MRSA [1] = test: antibacterial activity (MIC) by agar plate dilution method, MRSA strains; type: cell-based, methicillin-resistant Staphylococcus aureus; conditions: Staphylococcus aureus, 20 h; for MIC: range over strains
Description: as §1, §2, §3

MRSA [2] = test: antibacterial activity of antibiotics alone and in the presence of apigenin (4 μg/ml), MRSA; type: cell-based, methicillin-resistant Staphylococcus aureus; conditions: MRSA
Description: as §1
(D) Then use of 4 μg/ml of apigenin and other antibiotics at the same time was studied. The antibiotics are penicillin , ampicillin, cephalothin, cefoxitin, cefuroxime, cefotaxime, vancomycin, streptomycin, chloramphenicol, kanamycin, erythromycin, nalixic acid and tetracycline.

MRSA No. 5 = test: effect of flavone on antibacterial activity of antibiotics against MRSA No. 5 in bouillon (broth microdilution); type: cell-based, methicillin-resistant Staphylococcus aureus; conditions: for MIC: Staphylococcus aureus, MRSA, 20 h
Description: Alternatively, the screening of the present invention may be carried out according to the broth microdilution method designated by the Japan Society of Chemotherapy (Chemotherapy 38(1), 102-105 (1990)). Muellar-Hinton broth is used as a culture medium for the sensitivity test, and 50 mg/ml of calcium(Ca) ion, 25 mg/ml of magnesium(Mg) ion, and 2% sodium chloride (NaCl) are added thereto. An inoculating bacteria solution may be prepared by culturing bacteria to be tested in Mueller-Hinton broth at 37° C. for 20 hours and diluting with Mueller-Hinton broth to 10^5 CFU/ml final concentration of inoculating bacteria. Diluted β-lactam solution is prepared by two times serial dilution series. 10 μl of the diluted β-lactam solution and 10 μl of a predetermined concentration of a sample of bacteria to be tested are added to mix with 80 μl of the culture medium for the sensitivity test. To the resultant plate culture medium for sensitivity test, the inoculating bacteria are added and culturing is carried out for 20 hours at 37° C. and then assessment for a minimum inhibition concentration (MIC) is carried out. A minimum inhibition concentration means the minimum concentration of β-lactam at which growth of bacteria is not recognized by the naked eye.
(G) Antibacterial activity of 6 β-lactams, that is, cephalothin, cefuroxime, cefotaxime, cefoxitin, streptomycin and vancomycin, against MRSA in the presence of 0.5 mM flavone was studied in bouillon.
Muellar-Hinton broth was used as a culture medium for the sensitivity test, and 50 mg/ml of calcium (Ca) ion, 25 mg/ml of maqnesium (Mg) ion, 2% sodium chloride (NaCl) were added thereto. An inoculating bacteria solution was prepared by culturing bacteria to be tested with Mueller-Hinton broth at 37° C. for 20 hours and diluting with Mueller-Hinton broth to 10^5 CFU/ml final concentration of inoculating bacteria. Diluted β-lactam solutions were prepared in two times serial dilutions starting from 10 mM. Ten microliters of the diluted β-lactam solution and 10 μl of 5 mM of flavone were mixed with 80 μl of the culture medium for the sensitivity test in a microplate having U-shaped wells and samples of bacteria to be tested were added thereto. The mixture was cultured 20 hours at 37° C. and then assessed for minimum inhibition concentration (MIC). Minimum inhibition concentration means minimum concentration of a β-lactum at which growth of bacteria is inhibited to the extent that bacteria is not recognized by the naked eye.

[3] = MSSA (7 strains), read-out: MIC50
[4] = MSSA, MSSA (7 strains), read-out: MIC
[5] = MRSA (20 strains), read-out: MIC50
[6] = MRSA, MRSA (20 strains), read-out: MIC
[7] = Staphylococcus aureus, 20 h, Antibiotics alone
[8] = Staphylococcus aureus, 20 h, antibiotic with Apigenin (4 μg/ml)
[9] = Concentration of flavone 0.5 mM

MIC50 (MSSA; [3]) [µg/mL]	MIC (MSSA; [4]) [µg/mL]	MIC50 (MRSA [1]; [5]) [µg/mL]	MIC (MRSA [1]; [6]) [µg/mL]	Compound	MIC50 (MRSA [2]; [7]) [µg/mL]	MIC50 (MRSA [2]; [8]) [µg/mL]	other results
> 250	> 250	> 250	> 250	O=c1c(-c2ccc(O)cc2)coc2cc(O)cc(O)c12 [Genistein, genistein]			
> 250	> 250	> 250	> 250	COc1ccc([C@@H]2CC(=O)c3c(O)cc(O)cc3O2)cc1O [Hesperetin, hesperetin]			
				NC[C@H]1O[C@H](O[C@H]2[C@H](O)[C@@H](O[C@H]3O[C@H](CO)[C@@H](O)[C@H](N)[C@H]3O)[C@H](N)C[C@@H]2N)[C@H](O)[C@@H](O)[C@@H]1O [Kanamycin, kanamycin]	> 250	250	
				O=C1C[C@@H](c2ccc(O)cc2)Oc2cc(O)ccc21 [Liquiritigenin, liquiritigenin]			MIC50 (MSSA; MSSA): > 250 µg/mL; MIC50 (MRSA [1]; MRSA): > 250 µg/mL
> 250	> 250	> 250		O=c1c(O)c(-c2cc(O)c(O)c(O)c2)oc2cc(O)cc(O)c12 [Myricetin, myricetin]			
				CCn1cc(C(=O)O)c(=O)c2ccc(C)nc21 [Nalidixic acid]	> 250	> 250	
> 250	> 250	> 250	> 250	O=C1C[C@@H](c2ccc(O)cc2)Oc2cc(O)cc(O)c21 [Naringenin, naringenin]			
				Cc1onc(-c2ccccc2)c1C(=O)N[C@@H]1C(=O)N2[C@@H]1SC(C)(C)[C@@H]2C(=O)O [Oxacillin, oxacillin]	250	250	MIC (MRSA No. 5; Concentration of flavone 0 mM): 1000 µM (≈ 401 µg/mL); MIC (MRSA No. 5; [9]): 15.6 µM (≈ 6.26 µg/mL)
				CC1(C)S[C@@H]2[C@H](NC(=O)Cc3ccccc3)C(=O)N2[C@H]1C(=O)O [Penicillin G, penicillin G]	31.3	15.6	MIC (MRSA [2]; [7]): 0.49 to 125 µg/mL; MIC (MRSA [2]; [8]): 0.49 to 62.5 µg/mL
				O=c1c(O)c(-c2ccc(O)c(O)c2)oc2cc(O)c(O)c(O)c12 [Quercetagetin, quercetagetin]			MIC50 (MSSA; MSSA): > 250 µg/mL; MIC (MSSA; MSSA, MSSA (7 strains)): > 250 µg/mL; MIC50 (MRSA [1]; MRSA): > 250 µg/mL; MIC (MRSA [1]; MRSA, MRSA (20 strains)): > 250 µg/mL
> 250	> 250	> 250	> 250	COc1cc(O)c2c(=O)c(O)c(-c3ccc(O)c(O)c3)oc2c1 [Rhamnetin, rhamnetin]			
				[H]/N=C(/N)N[C@H]1[C@H](O)[C@@H](O)[C@H](O[C@@H]2O[C@@H](C)[C@](O)(C=O)[C@H]2O[C@@H]2O[C@@H](CO)[C@H](O)[C@@H](O)[C@@H]2NC)[C@@H](N/C(N)=N\[H])[C@@H]1O [Streptomycin, streptomycin]	7.8	7.6	MIC (MRSA No. 5; [9]): < 0.98 µM; inhibitory effect on resistance of MRSA No.5 (in words) (MRSA No. 5; in the presence of flavone 0.5 mM): appeared not to be showed; MIC (MRSA [2]; [7]): 7.8 to 15.6 µg/mL; MIC (MRSA [2]; [8]): 2 to 15.6 µg/mL
				CN(C)C1C(=O)C(C(N)=O)=C(O)C2(O)C(=O)C3=C(O)c4c(O)cccc4C(C)(O)C3CC12 (centres unmarked) [Tetracycline, tetracycline]	0.98	0.98	MIC (MRSA [2]; Antibiotics alone): 0.24 to 250 µg/mL; MIC (MRSA [2]; [8]): 0.49 to 250 µg/mL
